Reference: patent US20100316712A1, “PHARMACEUTICAL COMPOSITIONS FOR TREATMENT OF PARKINSON'S DISEASE AND RELATED DISORDERS” (Combinatorx, Incorporated, priority 2006, published 2010)
Like-named read-outs stand apart in the source and are kept apart here.

Key:
[1] = in vivo; cited from earlier work
[2] = doses of 400 mg per day; cited from earlier work
[3] = Plasma carbidopa and levodopa after SINEMET CR alone or after carbidopa pre-dosing; assay type: in vivo; settings: fed beagle dogs; for AUC(0-t): beagle, dog, plasma, po, read-out: AUC0-24; for increase in AUC0-24 / increase in peak concentrations: carbidopa pre-dosing + SINEMET CR vs SINEMET CR alone
Experimental: The following experiment was designed to determine if effective levodopa concentration in vivo is increased at the presence of a higher ratio of carbidopa to levodopa (as compared to that used in conventional therapy).
SINEMET® CR tablets (50 mg carbidopa/200 mg levodopa) were administered to fed beagle dogs either alone or after pre-dosing with 12.5 mg and 25 mg of carbidopa, and plasma concentrations of carbidopa and levodopa were measured over time (data not shown).

[4] = Carbidopa 12.5 mg pre-dose + SINEMET CR
[5] = Carbidopa 25 mg pre-dose + SINEMET CR
[6] = SINEMET CR (50 mg carbidopa/200 mg levodopa) alone

AUC(0-t) [3, 4]	AUC(0-t) [3, 5]	AUC(0-t) [3, 6]	increase in AUC0-24 [3]	increase in peak concentrations [3]	SMILES	fraction of an administered dose absorbed [1]	adverse effects [2]
592 ± 303 ng·h/mL	956 ± 534 ng·h/mL	215 ± 43 ng·h/mL	~100%	~100%	C[C@@](Cc1ccc(O)c(O)c1)(NN)C(=O)O [Carbidopa]	About 70%	fails to elicit adverse effects
8640 ± 2060 ng·h/mL	7000 ± 3830 ng·h/mL	3900 ± 298 ng·h/mL	~100%	~100%	N[C@@H](Cc1ccc(O)c(O)c1)C(=O)O [Levodopa, L-3,4-dihydroxyphenylalanine]		
